According to publication PMC9169622 (Proceedings of the National Academy of Sciences of the …, 2022):

Assays:
MDA-MB-231 cells = assay type: cell-based, human
GPR126 [1] = molecular target: T1, GPR126 (Homo sapiens, UniProt Q86SQ4); assay type: cell-based
T1 sequence (Q86SQ4 38-1221): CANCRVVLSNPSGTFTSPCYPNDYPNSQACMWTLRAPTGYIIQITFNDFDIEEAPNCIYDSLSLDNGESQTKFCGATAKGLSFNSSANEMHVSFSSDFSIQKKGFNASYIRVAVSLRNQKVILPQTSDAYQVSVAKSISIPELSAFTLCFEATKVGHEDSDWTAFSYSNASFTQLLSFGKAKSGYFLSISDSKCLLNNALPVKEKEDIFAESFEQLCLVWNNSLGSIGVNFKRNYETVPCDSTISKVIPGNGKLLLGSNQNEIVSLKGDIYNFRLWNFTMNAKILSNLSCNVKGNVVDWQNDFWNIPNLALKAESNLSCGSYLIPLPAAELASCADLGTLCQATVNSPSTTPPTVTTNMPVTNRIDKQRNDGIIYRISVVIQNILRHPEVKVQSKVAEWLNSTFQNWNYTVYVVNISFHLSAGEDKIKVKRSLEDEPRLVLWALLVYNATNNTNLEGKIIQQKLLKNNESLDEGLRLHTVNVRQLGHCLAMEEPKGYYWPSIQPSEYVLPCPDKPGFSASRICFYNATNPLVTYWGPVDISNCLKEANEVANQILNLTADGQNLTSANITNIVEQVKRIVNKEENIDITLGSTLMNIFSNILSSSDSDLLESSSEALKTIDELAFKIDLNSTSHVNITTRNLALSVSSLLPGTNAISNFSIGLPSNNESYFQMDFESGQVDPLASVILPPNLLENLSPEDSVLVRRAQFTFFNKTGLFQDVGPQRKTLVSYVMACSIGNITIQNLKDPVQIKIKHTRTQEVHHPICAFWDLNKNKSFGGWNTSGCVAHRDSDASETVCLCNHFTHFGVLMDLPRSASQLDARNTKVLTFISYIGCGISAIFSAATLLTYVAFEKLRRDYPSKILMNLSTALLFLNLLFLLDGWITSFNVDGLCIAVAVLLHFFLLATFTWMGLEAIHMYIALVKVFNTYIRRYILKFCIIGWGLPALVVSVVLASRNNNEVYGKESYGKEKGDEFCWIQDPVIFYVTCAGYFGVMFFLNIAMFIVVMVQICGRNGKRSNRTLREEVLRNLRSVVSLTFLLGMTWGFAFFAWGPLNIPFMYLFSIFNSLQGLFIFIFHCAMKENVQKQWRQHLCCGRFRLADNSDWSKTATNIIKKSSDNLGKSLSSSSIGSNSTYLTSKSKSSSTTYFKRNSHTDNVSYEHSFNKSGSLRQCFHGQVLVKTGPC

GPR126 [2] = molecular target: T1, GPR126; assay: cell-based; assay type: cell-based

| SMILES | effect of SRC inhibitor on progesterone-induced cell growth (MDA-MB-231 cells) | cAMP up-regulation compared to control vehicle (GPR126 [1]) | EC50 (GPR126 [2]) [nM] | Emax compared with 126-SMP, cAMP accumulation (GPR126 [2]) | effect on intracellular cAMP accumulation (GPR126 [2]) |
| --- | --- | --- | --- | --- | --- |
| COc1cc2ncnc(Nc3ccc(Oc4ccccc4)cc3)c2cc1OC [Src-I1] | significantly suppressed | – | – | – | – |
| C=C[C@@]1(C)CC(=O)[C@]2(O)[C@@]3(C)[C@@H](O)CCC(C)(C)[C@@H]3[C@H](O)[C@H](OC(C)=O)[C@@]2(C)O1 [Fsk, Forskolin] | – | approximately three times | – | – | – |
| C[C@]12CCC(=O)C=C1CC[C@@H]1[C@@H]2CC[C@@]2(C)[C@H]1CC[C@]2(O)C(=O)CO [11-deoxycortisol] | – | – | 1400 ± 140 | less than one-sixth | weak but detectable increase |
| C[C@]12CC[C@H]3[C@@H](CCC4=CC(=O)CC[C@@]43C)[C@@H]1CC[C@@H]2O [testosterone] | – | – | 800 ± 60 | less than one-sixth | weak but detectable increase |
